Usually IC50 stands for the concentration needed to halve the response being measured. Low readings indicate inhibition by little substance, high ones a need for much substance.

Chain of HCV RNA-dependent RNA polymerase NS5B (Δ21) (P26663 2420-2989, stated change not applied): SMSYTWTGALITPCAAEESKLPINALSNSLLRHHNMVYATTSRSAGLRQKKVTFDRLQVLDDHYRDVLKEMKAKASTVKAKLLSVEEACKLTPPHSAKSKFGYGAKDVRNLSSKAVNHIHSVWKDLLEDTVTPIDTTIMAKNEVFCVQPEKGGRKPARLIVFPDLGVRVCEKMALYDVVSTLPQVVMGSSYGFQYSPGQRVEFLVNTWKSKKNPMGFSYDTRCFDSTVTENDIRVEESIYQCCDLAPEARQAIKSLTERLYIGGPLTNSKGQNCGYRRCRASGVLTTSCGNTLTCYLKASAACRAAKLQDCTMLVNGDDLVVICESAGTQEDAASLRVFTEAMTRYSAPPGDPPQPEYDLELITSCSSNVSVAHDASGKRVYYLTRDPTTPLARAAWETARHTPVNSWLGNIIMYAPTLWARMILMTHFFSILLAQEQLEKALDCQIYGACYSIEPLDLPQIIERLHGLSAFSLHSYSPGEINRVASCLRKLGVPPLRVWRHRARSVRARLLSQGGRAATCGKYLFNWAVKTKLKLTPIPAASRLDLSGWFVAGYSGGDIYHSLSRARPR

This assay deals with HCV RNA-dependent RNA polymerase NS5B (Δ21) (Hepatitis C virus genotype 1b, UniProt P26663). The assay is described as follows: Assay for HCV RNA-dependent RNA polymerase activity (SPA, [3H]-GTP incorporation). Format: biochemical. The procedure:
Assay for HCV RNA-dependent RNA Polymerase Activity
Inhibitory activity of the present compounds against HCV RNA-dependent RNA polymerase was assayed according to the methods disclosed in U.S. Patent Application U.S.2004/038993, content of which is incorporated herein by reference; and those described in Ferrari, E.; Wright-Minogue, J.; Fang, J. W. S.; Baroudy, B. M.; Lau, J. Y. N.; Hong, Z. J. Virol. 1999, 73, 1649.
Briefly, 50 μl reactions containing 20 mM HEPES (pH 7.3), 7.5 mM DTT, 20 units/ml RNasIN, 0.5 ug/ml biotinylated oligoG12, 5 μg/ml polyC, 5 μM GTP, 20 μCi/ml [^3H]-GTP, 10 mM MgCl2, 60 mM NaCl, 100 μg/ml BSA, and 50 nM NS5B (Δ21) were incubated at room temperature for three hours in 96-well plates with or without test compounds. Assay was terminated by the addition of 50 μl 10 mg/ml streptavidin-coated SPA beads supplemented with 100 mM EDTA, and the incorporation of labeled GTP determined by a TopCount Scintillation Counter. IC50 values were calculated from single experiments using 11 serial 2-fold dilutions (0.05–50 μM), and data were considered reliable only when the IC50 value of a positive internal control was within standard deviation range.
On to `O=C(Cn1nc(C(=O)O)cc1OCc1cccc(F)c1C(F)(F)F)N[C@H]1CCCC[C@@H]1OCc1ccccc1` [Compound 44], for which half-maximal inhibition (IC50) required 4.5 µM. As for `CS(=O)(=O)c1cccc(-c2ccccc2COc2cc(C(=O)O)nn2CC(=O)N[C@H]2CCCC[C@@H]2OCc2ccccc2)c1` [Compound 51], the IC50 came to 22 µM. The value for `O=C(Cn1nc(C(=O)O)cc1OCc1cccc(Cl)c1F)N[C@H]1CCCC[C@@H]1OCc1ccccc1` [Compound 35] was 9.2 µM; that for `O=C(Cn1nc(C(=O)O)cc1OCc1cc(F)ccc1C(F)(F)F)N[C@H]1CCCC[C@@H]1OCc1ccccc1` [Compound 33] was 2.9 µM.

`O=C(Cn1nc(C(=O)O)cc1OCc1ccc(F)cc1F)N[C@H]1CCCC[C@@H]1OCc1ccccc1` [Compound 29] registered an IC50 above 12.5 µM. In turn, `CCOc1ccccc1COc1cc(C(=O)O)nn1CC(=O)Nc1ccccc1OCc1ccccc1` [Compound 6] showed an IC50 of 40 µM.

As to `O=C(Cn1nc(C(=O)O)cc1OCc1cc(F)cc(C(F)(F)F)c1)N[C@H]1CCCC[C@@H]1OCc1ccccc1` [Compound 11, 1-[((1S, 2S)-2-Benzyloxy-cyclohexylcarbamoyl)-methyl]-5-(3-fluoro-5-trifluoromethyl-benzyloxy)-1H-pyrazole-3-carboxylic acid], 1.8 µM corresponded to half-maximal inhibition (IC50). Take `O=C(Cn1nc(C(=O)O)cc1OCc1ccccc1-c1ccsc1)N[C@H]1CCCC[C@@H]1OCc1ccccc1` [Compound 58, 1-[(2-benzyloxy-cyclohexylcarbamoyl)-methyl]-5-(2-thiophen-3-yl-benzyloxy)-1H-pyrazole-3-carboxylic acid]: the IC50 is 0.75 µM. In the case of `O=C(Cn1nc(C(=O)O)cc1OCc1ccccc1F)N[C@H]1CCCC[C@@H]1OCc1ccccc1` [Compound 14], the IC50 was above 12.5 µM.

Consider `O=C(Cn1nc(C(=O)O)cc1OCc1ccccc1Cl)N[C@H]1CCCC[C@@H]1OCc1ccccc1` [Compound 13], for which the concentration for half-maximal inhibition (IC50) was above 12.5 µM. `O=C(Cn1nc(C(=O)O)cc1OCc1cccc(Oc2ccccc2F)c1)N[C@H]1CCCC[C@@H]1OCc1ccccc1` [Compound 39]: the IC50 is 2.2 µM.

Compound `O=C(Cn1nc(C(=O)O)cc1OCc1ccc(F)c(C(F)(F)F)c1)N[C@H]1CCCC[C@@H]1OCc1ccccc1` [Compound 31] registered an IC50 of 1.4 µM. `O=C(Cn1nc(C(=O)O)cc1OCc1ccc(F)cc1)N[C@H]1CCCC[C@@H]1OCc1ccccc1` [Compound 21] came in with an IC50 of 13 µM. The compound `O=C(Cn1nc(C(=O)O)cc1OCc1cc(F)ccc1F)N[C@H]1CCCC[C@@H]1OCc1ccccc1` [Compound 46] yielded an IC50 above 12.5 µM. For `COc1ccc(-c2ccccc2COc2cc(C(=O)O)nn2CC(=O)N[C@H]2CCCC[C@@H]2OCc2ccccc2)cc1` [Compound 50, 1-[(2-benzyloxy-cyclohexylcarbamoyl)-methyl]-5-(4′-methoxy-biphenyl-2-ylmethoxy)-1H-pyrazole-3-carboxylic acid], the IC50 was determined as 0.38 µM.

Turning to `Nc1nc2ccc(CNC(=O)Cn3nc(C(=O)O)cc3OCc3ccccc3-c3ccc(C(F)(F)F)cc3)cc2s1` [Compound 62], the IC50 was above 12.5 µM. In turn, `O=C(Cn1nc(C(=O)O)cc1OCc1cccc(F)c1F)N[C@H]1CCCC[C@@H]1OCc1ccccc1` [Compound 24] gave an IC50 above 12.5 µM. The value for `O=C(Cn1nc(C(=O)O)cc1OCc1ccc(F)cc1C(F)(F)F)N[C@H]1CCCC[C@@H]1OCc1ccccc1` [Compound 38] was 2.6 µM; that for `O=C(Cn1nc(C(=O)O)cc1OCc1cccc(C(F)(F)F)c1)N[C@H]1CCCC[C@@H]1OCc1ccccc1` [Compound 18] was 2.1 µM. For the compound `CC(C)COc1cc(C(=O)O)nn1CC(=O)N[C@H]1CCCC[C@@H]1OCc1ccccc1` [Compound 60], the IC50 is above 50 µM. The value for `O=C(Cn1nc(C(=O)O)cc1OCc1cccc(C(F)(F)F)c1F)N[C@H]1CCCC[C@@H]1OCc1ccccc1` [Compound 30] was 2 µM. Compound `O=C(Cn1nc(C(=O)O)cc1OCc1ccccc1C(F)(F)F)N[C@H]1CCCC[C@@H]1OCc1ccccc1` [Compound 20] showed an IC50 of 2.9 µM. The compound `O=C(Cn1nc(C(=O)O)cc1OCc1ccc2ccccc2c1)N[C@H]1CCCC[C@@H]1OCc1ccccc1` [Compound 45] showed an IC50 of 6.8 µM. `O=C(Cn1nc(C(=O)O)cc1OCc1ccc(F)c(F)c1)N[C@H]1CCCC[C@@H]1OCc1ccccc1` [Compound 25]: half-maximal inhibition (IC50) was put at 4.3 µM. Compound `O=C(Cn1nc(C(=O)O)cc1OCc1ccc(Cl)cc1)N[C@H]1CCCC[C@@H]1OCc1ccccc1` [Compound 15] yielded an IC50 of 2.4 µM. Take `CS(=O)(=O)c1ccc(-c2ccccc2COc2cc(C(=O)O)nn2CC(=O)N[C@H]2CCCC[C@@H]2OCc2ccccc2)cc1` [Compound 52]: the IC50 came to 9.2 µM.

As to `O=C(Cn1nc(C(=O)O)cc1OCc1ccccc1-c1ccccc1Cl)N[C@H]1CCCC[C@@H]1OCc1ccccc1` [Compound 54], the midpoint of inhibition, the IC50, lay at 2.6 µM. The compound `O=C(Cn1nc(C(=O)O)cc1OCc1ccc(C(F)(F)F)c(F)c1)N[C@H]1CCCC[C@@H]1OCc1ccccc1` [Compound 32] had an IC50 of 0.28 µM. The same measure for `O=C(Cn1nc(C(=O)O)cc1OCc1ccccc1-c1ccc(C(=O)O)cc1)N[C@H]1CCCC[C@@H]1OCc1ccccc1` [Compound 56]: above 12.5 µM; for `Cc1ccc(COc2cc(C(=O)O)nn2CC(=O)N[C@H]2CCCC[C@@H]2OCc2ccccc2)cc1F` [Compound 22]: 3 µM; for `O=C(Cn1nc(C(=O)O)cc1OCc1ccccc1-c1ccccc1)N[C@H]1CCCC[C@@H]1OCc1ccccc1` [Compound 3]: 1 µM.

In the case of `O=C(Cn1nc(C(=O)O)cc1OCc1ccc(F)c(Cl)c1)N[C@H]1CCCC[C@@H]1OCc1ccccc1` [Compound 42], the IC50 was 13 µM.

Compound `O=C(Cn1nc(C(=O)O)cc1OCc1cc(F)ccc1C(F)(F)F)N[C@H]1CCCC[C@@H]1OCc1ccccc1` [Compound 40] gave an IC50 of 3.1 µM. The same measure for `O=C(Cn1nc(C(=O)O)cc1OCc1cccc(Cl)c1)N[C@H]1CCCC[C@@H]1OCc1ccccc1` [Compound 27]: 8.6 µM. The value for `O=C(Cn1nc(C(=O)O)cc1OCc1ccc(C(F)(F)F)cc1F)N[C@H]1CCCC[C@@H]1OCc1ccccc1` [Compound 37] was 6.2 µM; that for `Cc1cccc(COc2cc(C(=O)O)nn2CC(=O)N[C@H]2CCCC[C@@H]2OCc2ccccc2)c1F` [Compound 16] was 8.4 µM. Take `O=C(Cn1nc(C(=O)O)cc1OCc1cc(F)cc(F)c1)N[C@H]1CCCC[C@@H]1OCc1ccccc1` [Compound 23]: half-maximal inhibition (IC50) required 12 µM.

For the compound `O=C(Cn1nc(-c2nnn[nH]2)cc1OCc1ccccc1-c1ccc(C(F)(F)F)cc1)N[C@H]1CCCC[C@@H]1OCc1ccccc1` [Compound 66, N-(2-benzyloxy-cyclohexyl)-2-[3-(1H-tetrazol-5-yl)-5-(4′-trifluoromethyl-biphenyl-2-ylmethoxy)-pyrazol-1-yl]-acetamide], the IC50 worked out at 0.057 µM. With `O=C(Cn1nc(C(=O)O)cc1OCc1cc(C(F)(F)F)ccc1F)N[C@H]1CCCC[C@@H]1OCc1ccccc1` [Compound 34], the midpoint of inhibition, the IC50, lay at 6.1 µM. The value for `O=C(Cn1nc(C(=O)O)cc1OCc1ccccc1-c1ccc(C(F)(F)F)cc1)NCCCc1ccccc1` [Compound 63] was 12 µM; that for `O=C(Cn1nc(C(=O)O)cc1OCc1ccc(F)cc1Cl)N[C@H]1CCCC[C@@H]1OCc1ccccc1` [Compound 17] was 9.5 µM. The value for `O=C(Cn1nc(C(=O)O)cc1OCc1cc(Cl)ccc1Cl)N[C@H]1CCCC[C@@H]1OCc1ccccc1` [Compound 12] was 3.9 µM.

The values above are taken from patent US7115749B2, “Substituted 5-oxo pyrazoles and [1,2,4]triazoles as antiviral agents” (priority 2004, dated 2006).
